Experimental data published in patent US10729710B2, “Catecholamine prodrugs for use in the treatment of Parkinson's disease” (H. Lundbeck A/S, priority 2017, dated 2020).
Structures can show the parent of a compound that is named as a salt.

Legend:
human D1 receptor = human D1 receptor (Homo sapiens (Human), UniProt P21728); assay: Dopamine D1 receptor agonism, HTRF cAMP assay; type: cell-based; conditions: HEK-293 cells expressing human D1 receptor, cAMP
Protocol: Dopamine D1 receptor agonism was measured using a HTRF cAMP from CisBio using the protocol developed by HD Biosciences (China). Briefly, the assay is a homogeneous time resolved-fluorescence resonance energy transfer (HTRF) assay that measures production of cAMP by cells in a competitive immunoassay between native cAMP produced by cells and cAMP-labeled with XL-665. A cryptate-labeled anti-cAMP antibody visualizes the tracer. The assay was performed in accordance with instructions from manufacturer.
Test compounds were added to wells of microplates (384 format). HEK-293 cells expressing the human D1 receptor were plated at 1000 cells/well and incubated 30 min at room temperature. cAMP-d2 tracer was added to wells and followed by addition of Anti-cAMP antibody-cryptate preparation and incubated for 1 h at room temperature in dark. HTRF cAMP was measured by excitation of the donor with 337 nm laser (the “TRF light unit”) and subsequent (delay time 100 microseconds) measurement of cryptate and d2 emission at 615 nm and 665 nm over a time window of 200 microseconds with a 2000 microseconds time window between repeats/100 flashes). HRTF measurements were performed on an Envision microplate reader (PerkinElmer). The HTRF signal was calculated as the emission-ratio at 665 nm over 615 nm. The HTRF ratio readout for test compounds was normalized to 0% and 100% stimulation using control wells with DMSO-solvent or 30 uM dopamine. Test compound potency (EC50) was estimated by nonlinear regression using the sigmoidal dose-response (variable slope) using Xlfit 4 (IDBS, Guildford, Surrey, UK, model 205). y=(A+((B−A)/(1+((C/x)^D)))) where y is the normalized HTRF ratio measurement for a given concentration of test compound, x is the concentration of test compound, A is the estimated efficacy at infinite compound dilution, and B is the maximal efficacy. C is the EC50 value and D is the Hill slope coefficient. EC50 estimates were obtained from an independent experiment and the logarithmic average was calculated. Dopamine D2 Receptor Agonism

human D2 receptor = human D2 receptor (Homo sapiens (Human), UniProt P14416); assay: Dopamine D2 receptor agonism, calcium mobilization assay; type: cell-based
Protocol: Dopamine D2 receptor agonism was measured using a calcium mobilization assay protocol developed by HD Biosciences (China). Briefly, HEK293/G15 cells expressing human D2 receptor were plated at a density of 15000 cells/well in clear-bottomed, Matrigel-coated 384-well plates and grown for 24 hrs at 37° C. in the presence of 5% CO2. The cells were incubated with calcium-sensitive fluorescent dye, Fluo8, for 60-90 minutes at 37° C. in the dark. Test compounds were prepared at 3-fold concentrated solution in 1×HBSS buffer with Ca^2+ and Mg^2+. Calcium Flux signal was immediately recorded after compounds were added from compound plate to cell plate at FLIPR (Molecular Devices). The fluorescence data were normalized to yield responses for no stimulation (buffer) and full stimulation (1 μM of dopamine) of 0% and 100% stimulation, respectively. Test compound potency (EC50) was estimated by nonlinear regression using the sigmoidal dose-response (variable slope) using Xlfit 4 (IDBS, Guildford, Surrey, UK, model 205). y=(A+((B−A)/(1+((C/x)^D)))) where y is the normalized ratio measurement for a given concentration of test compound, x is the concentration of test compound, A is the estimated efficacy at infinite compound dilution, and B is the maximal efficacy. C is the EC50 value and D is the Hill slope coefficient. EC50 estimates were obtained from independent experiment and the logarithmic average was calculated.

[1] = PK experiments in rats: plasma compound (I) after oral dosing of prodrugs; type: in vivo, Han Wistar rats; conditions: Wistar rats, FIG. 2, doses equal to 287 μg/kg of compound (I)
Protocol: Plasma was placed on water-ice following collection. Final storage at approximately −70° C.
Mobile phase B: Acetonitrile. […] Flow rate 0.5 mL/min.
The rats had unrestricted access to the diet.
Mobile phase B: Acetonitrile+0.2% formic acid. […] Flow rate 0.3 mL/min.
Han Wistar rats were supplied by Envigo, UK. […] The rats received a standard laboratory diet Teklad 2014C. The rats had unrestricted access to the diet.

human 5-HT2B receptor = human 5-HT2B receptor (Homo sapiens (Human), UniProt P41595); assay: 5-HT2B agonist activity assay (IP1 production, HTRF); type: cell-based
Protocol: Evaluation of the agonist activity of compounds (I), (Ia) and (Ib) at the human 5-HT2B receptor was performed by Eurofins/Cerep (France) measuring the compound effects on inositol monophosphate (IP1) production using the HTRF detection method. Briefly, the human 5-HT2B receptor was expressed in transfected CHO cells. The cells were suspended in a buffer containing 10 mM Hepes/NaOH (pH 7.4), 4.2 mM KCl, 146 mM NaCl, 1 mM CaCl2, 0.5 mM MgCl2, 5.5 mM glucose and 50 mM LiCl, then distributed in microplates at a density of 4100 cells/well and incubated for 30 min at 37° C. in the presence of buffer (basal control), test compound or reference agonist. For stimulated control measurement, separate assay wells contained 1 μM 5-HT. Following incubation, the cells were lysed and the fluorescence acceptor (fluorophen D2-labeled IP1) and fluorescence donor (anti-IP1 antibody labeled with europium cryptate) were added. After 60 min at room temperature, the fluorescence transfer was measured at lambda(Ex) 337 nm and lambda(Em) 620 and 665 nm using a microplate reader (Rubystar, BMG). The IP1 concentration was determined by dividing the signal measured at 665 nm by that measured at 620 nm (ratio). The results were expressed as a percent of the control response to 1 μM 5-HT. The standard reference agonist was 5-HT, which was tested in each experiment at several concentrations to generate a concentration-response curve from which its EC50 value is calculated as described above for dopamine functional assays.

[2] = Conversion to compound (I) in fresh human blood; type: in vitro ADME; conditions: fresh blood 37° C., 1 μg/mL, 0-60 minutes, FIG. 8b
Protocol: (§1) Conversion of (Id-ia), (Id-ib), (Id-iia) and (Id-iib) in human blood (average of 3 donors) and rat blood (average of 45 donors) to (I) was shown in fresh blood at 37° C. spiked with 1 μg/mL of (Id-ia), (Id-ib), (Id-iia) and (Id-iib) separately, (I) was measured at 0, 5, 15, 30 and 60 minutes in isolated plasma. Analysis method and Instrumentation as described in Examples 4 and 5 below in the section “Instrumentation used for analysis of compound (I) from dosing of compounds (Ic), (Id-ia), (Id-ib), (Id-iia), (Id-iib), (Id-iab) and (Id-iiab).”

hepatocytes from rat = assay: Conversion to compound (I) in rat hepatocytes; type: in vitro ADME; conditions: 1 μg/mL, 37° C., 0.25-60 minutes, FIG. 7a
Protocol: (§2) The cell concentration at incubation was 1×10^6 viable cells/mL. The incubations were performed in glass tubes at 37° C. with a total incubation volume of 3.5 mL and with duplicate incubations for each test item. The 3.5 mL of hepatocyte suspension was equilibrated for 10 minutes in a water bath set to 37° C. where after the incubations were initiated by adding 3.5 μL of a stock solution of the test item in DMSO (Dimethyl sulfoxide) and gently inverting the tubes. The final solvent concentration in the incubations was 0.1% DMSO. Samples of 600 μL were withdrawn from the incubations at the pre-determined time points of 0.25, 5, 15, 30 and 60 minutes after ensuring homogeneity of hepatocyte suspensions. The withdrawn volume was added to 1 mL Nunc cryo tubes on wet ice containing 60 μL of ice cold ascorbic acid (100 mg/mL) and 30 μL of ice cold 100 mM saccharic acid 1.4-lactone in 0.5 M citric acid. The tubes were mixed and 35 μL of a solution of ice cold 20% formic acid was added. The tubes were mixed thoroughly and stored at −80° C. awaiting analysis. Analysis method and Instrumentation used for analysis of (I) from dosing (Id-ia), (Id-ib), (Id-iia) and (Id-iib), were the one described in Examples 4 and 5 below in the section “Instrumentation used for analysis of compound (I) from dosing of compounds (Ic), (Id-ia), (Id-ib), (Id-iia), (Id-iib), (Id-iab) and (Id-iiab).”
(§3) Analysis method and Instrumentation used for analysis of (I) from dosing (Id-iab) and (Id-iiab) consisted of mixing equal aliquots of the samples and precipitation solution (acetonitrile (MeCN) with 10% methanol (MeOH) and 1% formic acid), followed by centrifugation at 4° C. at 16000 g for 10 minutes. Supernatants were collected and analysed by LC-MS/MS. Mass spectrometer: Waters Acquity—Waters Xevo TQ-MS. Analytical column: Acquity UPLC HSS T3, 100×2.1 mm, 1.8 μm. Mobile phase A: 0.2% formic acid in water. Mobile phase B: 0.2% formic acid in acetonitrile. Gradient run from 95/5% to 60/40 in 5 min. Flow rate 0.3 mL/min. MRM monitoring of (I) in the study samples and in the analytical standards.

hepatocytes from human = assay: Conversion to compound (I) in human hepatocytes; type: in vitro ADME; conditions: 1 μg/mL, 37° C., 0.25-60 minutes, FIG. 7b
Protocol: as §2, §3

[3] = Conversion to compound (I) in fresh rat blood; type: in vitro ADME; conditions: fresh blood 37° C., 1 μg/mL, 0-60 minutes, FIG. 8a
Protocol: as §1

male CD rats = assay: Rat locomotor activity (hyperactivity) assay, open field; type: in vivo; conditions: for time until locomotor effect is gone: apomorphine: post administration, pramipexole: after appearance of effect, (Id-ia): recording ended at 415-minute time point
Protocol: In total, 206 male CD rats (Charles River, Germany) weighing 200-250 grams (165-190 grams upon arrival) were used in the study. Animals were housed at a standard temperature (22±1° C.) and in a light-controlled environment (lights on from 7 am to […]) with ad libitum access to food and water. The experiment described below was performed in accordance with the standard operating procedures of Charles River Discovery Research Services Finland Ltd. and in accordance with the national Animal Experiment Board of Finland (Eläinkoelautakunta, ELLA) authority on animal testing.
The test device is a square Plexiglass-arena (measuring 40×40×40 cm), in which the movement paths of the rats are recorded by an activity monitor (Med. Associates Inc.). Before the test period is initiated, rats are habituated to their test cage for 60 minutes. Upon completion of habituation, animals were treated with either compound or vehicle and placed back into the open field apparatus. The main test parameter measured is ambulatory distance (recorded in 5 minute segments). Overall time of measurement after receiving initial treatment was 360 minutes. Total follow up period in the study was 420 min, including 60 min of habituation.

Chain of human 5-HT2B receptor (P41595 whole entry): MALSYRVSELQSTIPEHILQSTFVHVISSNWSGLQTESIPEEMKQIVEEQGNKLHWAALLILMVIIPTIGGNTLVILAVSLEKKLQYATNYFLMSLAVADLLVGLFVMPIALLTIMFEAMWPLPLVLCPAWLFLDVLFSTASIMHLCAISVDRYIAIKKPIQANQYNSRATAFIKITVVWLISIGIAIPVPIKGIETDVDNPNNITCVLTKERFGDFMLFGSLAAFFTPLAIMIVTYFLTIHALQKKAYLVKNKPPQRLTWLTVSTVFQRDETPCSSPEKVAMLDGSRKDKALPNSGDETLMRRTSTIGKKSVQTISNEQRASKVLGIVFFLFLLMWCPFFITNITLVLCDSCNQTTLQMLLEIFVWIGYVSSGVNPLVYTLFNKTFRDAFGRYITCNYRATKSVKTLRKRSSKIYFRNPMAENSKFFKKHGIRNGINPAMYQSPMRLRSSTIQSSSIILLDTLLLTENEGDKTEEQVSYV
Chain of human D2 receptor (P14416 whole entry): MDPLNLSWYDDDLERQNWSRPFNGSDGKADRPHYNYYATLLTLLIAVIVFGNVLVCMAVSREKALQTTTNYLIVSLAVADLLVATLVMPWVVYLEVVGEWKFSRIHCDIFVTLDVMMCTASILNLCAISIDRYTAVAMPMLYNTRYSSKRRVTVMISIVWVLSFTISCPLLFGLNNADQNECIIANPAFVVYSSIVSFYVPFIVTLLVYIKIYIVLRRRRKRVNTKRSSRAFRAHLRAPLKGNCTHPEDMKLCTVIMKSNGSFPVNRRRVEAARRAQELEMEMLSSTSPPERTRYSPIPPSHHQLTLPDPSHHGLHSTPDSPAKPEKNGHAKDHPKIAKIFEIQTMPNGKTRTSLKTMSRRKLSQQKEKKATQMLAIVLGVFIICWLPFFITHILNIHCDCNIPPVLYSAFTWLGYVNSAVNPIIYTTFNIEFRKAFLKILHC
Chain of human D1 receptor (P21728 whole entry): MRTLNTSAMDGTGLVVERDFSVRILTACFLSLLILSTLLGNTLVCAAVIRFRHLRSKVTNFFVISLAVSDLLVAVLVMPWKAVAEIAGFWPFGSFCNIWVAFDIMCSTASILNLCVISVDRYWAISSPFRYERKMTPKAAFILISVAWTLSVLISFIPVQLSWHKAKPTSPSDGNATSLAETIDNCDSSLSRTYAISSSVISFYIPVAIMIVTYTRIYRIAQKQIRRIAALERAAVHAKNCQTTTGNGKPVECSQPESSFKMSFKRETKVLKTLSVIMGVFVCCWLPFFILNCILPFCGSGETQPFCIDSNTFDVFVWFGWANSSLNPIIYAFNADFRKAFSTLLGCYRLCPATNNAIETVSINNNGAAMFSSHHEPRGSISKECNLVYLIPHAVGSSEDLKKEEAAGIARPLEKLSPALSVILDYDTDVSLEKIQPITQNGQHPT

## CCCN1CCC[C@@H]2CC3=C(CCCC3=O)C[C@H]21 [(Ia), reference compound]
Human D1 receptor
  EC50: > 1 µM
Human D2 receptor; HEK293/G15 cells expressing human D2 receptor, calcium flux
  EC50: > 1 µM
[1]
  plasma profile of compound (I) after oral dosing (in words): early and high peak concentrations of compound (I)
Human 5-HT2B receptor; @30 uM, percent of control response to 1 μM 5-HT
  5-HT2B agonist effect at concentration indicated: 58%
Human 5-HT2B receptor; CHO cells, IP1 production
  EC50: > 6 µM

## CCCN1CCC[C@@H]2Cc3c(ccc(O[C@@H]4O[C@H](C(=O)O)[C@@H](O)[C@H](O)[C@H]4O)c3O)C[C@H]21 [(Id-ib), (2S,3S,4S,5R,6S)-3,4,5-trihydroxy-6-(((4aR,10aR)-6-hydroxy-1-propyl-1,2,3,4,4a,5,10,10a-octahydrobenzo[g]quinolin-7-yl)oxy)tetrahydro-2H-pyran-2-carboxylic acid]
[2]
  conversion to compound (I) in human blood: time dependent conversion to compound (I)
[1]
  plasma profile of compound (I) after oral dosing (in words): slower absorption rate avoiding rapid peak concentrations accompanied by a sustained exposure of compound (I) in plasma
Hepatocytes from rat
  conversion to compound (I) in rat hepatocytes: time dependent conversion to compound (I)
Hepatocytes from human
  conversion to compound (I) in human hepatocytes: time dependent conversion to compound (I)
[3]
  conversion to compound (I) in rat blood: time dependent conversion to compound (I)

## CN1CCc2cccc3c2[C@H]1Cc1ccc(O)c(O)c1-3 [apomorphine, reference compound]
Male CD rats
  time until locomotor effect is gone: 1.5 h

## CCCN[C@H]1CCc2nc(N)sc2C1 [Pramipexole, pramipexole, reference compound]
Male CD rats; FIG. 4, (Id-ia) p.o., apomorphine 3 mg/kg s.c., pramipexole 0.3 mg/kg s.c.
  total distance travelled vs vehicle: significantly increased activity
Male CD rats
  time until locomotor effect is gone: 2.5 h

## CCCN1CCC[C@@H]2Cc3c(ccc(OC(=O)C(C)(C)C)c3OC(=O)C(C)(C)C)C[C@H]21 [(Ic), reference compound]
[1]
  plasma profile of compound (I) after oral dosing (in words): extremely low
Human 5-HT2B receptor; @10 μM
  5-HT2B effect at concentration indicated (no asterisk): −5%@10

## CCCN1CCC[C@@H]2Cc3c(ccc(OS(=O)(=O)O)c3O)C[C@H]21 [(Id-iib), (4aR,10aR)-6-hydroxy-1-propyl-1,2,3,4,4a,5,10,10a-octahydrobenzo[g]quinolin-7-yl hydrogen sulfate]
[2]
  conversion to compound (I) in human blood: time dependent conversion to compound (I)
[1]
  plasma profile of compound (I) after oral dosing (in words): slower absorption rate avoiding rapid peak concentrations accompanied by a sustained exposure of compound (I) in plasma
Hepatocytes from rat
  conversion to compound (I) in rat hepatocytes: time dependent conversion to compound (I)
Hepatocytes from human
  conversion to compound (I) in human hepatocytes: time dependent conversion to compound (I)
[3]
  conversion to compound (I) in rat blood: time dependent conversion to compound (I)

## CCCN1CCC[C@@H]2Cc3c(ccc4c3OCO4)C[C@H]21 [(Ib), reference compound]
Human D1 receptor
  EC50: > 1 µM
Human D2 receptor; normalized to 1 μM dopamine = 100%
  Emax: 100%
[1]
  plasma profile of compound (I) after oral dosing (in words): early and high peak concentrations of compound (I)
Human 5-HT2B receptor; example 3
  5-HT2B agonism (in words): agonist of the 5-HT2B receptor
Human 5-HT2B receptor; read-out: 5-HT2B Emax
  Emax: 79%
